Laboratory results: patent US4605615A, “L-glutamic acid oxidase (H2 O2 -generating), its production and analytical method therefor” (priority 1982, dated 1986)
Where two headings read alike, the source gives them in different places. Each block holds one molecule with its values, some of them ahead of it.

How the values were obtained:
[1] = tested on: A7700 enzyme; test: Effect of metal ions on enzyme activity; type: biochemical, Streptomyces sp. A7700; settings: metalic salt 1.0 mM
Procedure: (§1) The above mixture (3.0 ml) was introduced into a quartz cell at 37° C., to which was immediately added and mixed the enzyme solution (50 μl), in a constant temperature (37° C.) cell-holder of a spectrophotometer. Then the mixture was incubated for exactly 5 minutes after 2 minutes of mixing with the enzyme solution, and the variation of absorption (optical density ΔA545) at 545 nm is measured.
(§2) The activity of the enzyme is calculated by the following equation: [formula] 2. Substrate specificity:
(§3) The effect of metal ions is shown in Table 5, in which ions other than Cu^++ show no effect on the enzymes.

[2] = tested on: A8063 enzyme; test: Effect of metal ions on enzyme activity; type: biochemical, Streptomyces sp. A8063; settings: metalic salt 1.0 mM
Procedure: as §1, §2, §3

[3] = tested on: A7700 enzyme; test: Effect of surface active agents and other substances on enzyme activity; type: biochemical, Streptomyces sp. A7700
Procedure: as §1
(§4) The activity of the enzyme is calculated by the following equation: [formula] 2.

[4] = tested on: A8063 enzyme; test: as above; type: biochemical, Streptomyces sp. A8063
Procedure: as §1, §4

[5] = tested on: A8063 enzyme; test: Substrate specificity: relative activity on various substrates; type: biochemical, Streptomyces sp. A8063
Procedure: as §1, §2
(§5) The relative activities (%) of enzyme L-glutamic acid oxidases produced by Streptomyces sp. A7700 (hereinafter designated as A7700 enzyme) and by Streptomyces sp. A8063 (hereinafter designated as A8063 enzyme), respectively, on various substrates as compared with L-glutamic acid, are measured.

[6] = tested on: A7700 enzyme; test: as above; type: biochemical, Streptomyces sp. A7700
Procedure: as §1, §2, §5

[7] = tested on: A8063 enzyme; settings: read-out: Km value; A8063 enzyme against L-glutamic acid
[8] = tested on: A7700 enzyme; settings: read-out: Km value; A7700 enzyme against L-glutamic acid

- Relative activity (%) on substrate as compared with L-glutamic acid [5]: 0%
- Relative activity (%) on substrate as compared with L-glutamic acid [6]: 0%
SMILES: N[C@H](CCC(=O)O)C(=O)O [D-glutamic acid]

- Relative activity (%) ([3]; A7700, additive 0.01 mM): 100.7%
- Effect of additive on enzyme activity (in words) ([3]; A7700 enzyme): not affected
- Relative activity (%) ([4]; A8063, additive 0.01 mM): 100.7%
- Effect of additive on enzyme activity (in words) ([4]; A8063 enzyme): not affected
SMILES: Cc1cc2nc3c(=O)[nH]c(=O)nc-3n(C[C@H](O)[C@H](O)[C@H](O)COP(=O)(O)OP(=O)(O)OC[C@H]3O[C@@H](n4cnc5c(N)ncnc54)[C@H](O)[C@@H]3O)c2cc1C [FAD]

- Relative activity (%) ([3]; A7700, additive 0.01 mM): 88.9%
- Effect of additive on enzyme activity (in words) ([3]; A7700 enzyme): not affected
- Relative activity (%) ([4]; A8063, additive 0.01 mM): 97.1%
- Effect of additive on enzyme activity (in words) ([4]; A8063 enzyme): not affected
SMILES: Cc1cc2nc3c(=O)[nH]c(=O)nc-3n(C[C@H](O)[C@H](O)[C@H](O)COP(=O)(O)O)c2cc1C [FMN]

- Relative activity (%) on substrate as compared with L-glutamic acid [5]: 0%
- Relative activity (%) on substrate as compared with L-glutamic acid [6]: 0%
SMILES: C[C@H](N)C(=O)O [L-alanine]

- Activity of enzyme on substrate (in words) [5]: specific activity
- Relative activity (%) on substrate as compared with L-glutamic acid [5]: 100%
- Km [7]: ~1100 µM
- Activity of enzyme on substrate (in words) [6]: specific activity
- Relative activity (%) on substrate as compared with L-glutamic acid [6]: 100%
- Km [8]: ~560 µM
SMILES: N[C@@H](CCC(=O)O)C(=O)O [L-glutamic acid]

- Relative activity (%) on substrate as compared with L-glutamic acid [5]: 0%
- Relative activity (%) on substrate as compared with L-glutamic acid [6]: 0%
SMILES: N[C@@H](Cc1c[nH]cn1)C(=O)O [L-histidine]

- Relative activity (%) on substrate as compared with L-glutamic acid [5]: 0%
- Relative activity (%) on substrate as compared with L-glutamic acid [6]: 0%
SMILES: CC[C@H](C)[C@H](N)C(=O)O [L-isoleucine]

- Relative activity (%) on substrate as compared with L-glutamic acid [5]: 0%
- Relative activity (%) on substrate as compared with L-glutamic acid [6]: 0%
SMILES: CSCC[C@H](N)C(=O)O [L-methionine]

- Relative activity (%) on substrate as compared with L-glutamic acid [5]: 0%
- Relative activity (%) on substrate as compared with L-glutamic acid [6]: 0%
SMILES: N[C@@H](Cc1ccccc1)C(=O)O [L-phenylalanine]

Further lines, the molecule ahead of its results:

SMILES: [Ba+2].[Cl-].[Cl-] [BaCl2]
- Relative activity (%) [1]: 102.5%
- Relative activity (%) [2]: 103.7%

SMILES: CCCCCCCCCCCCCCCC[N+](C)(C)C [CTACl]
- Relative activity (%) ([3]; A7700, additive 0.1%): 98.6%
- Relative activity (%) ([4]; A8063, additive 0.1%): 94.2%

SMILES: [Ca+2].[Cl-].[Cl-] [CaCl2]
- Relative activity (%) [1]: 98.8%
- Relative activity (%) [2]: 103.0%

SMILES: [Cl-].[Cl-].[Co+2] [CoCl2]
- Relative activity (%) [1]: 99.4%
- Relative activity (%) [2]: 98.0%

SMILES: [Cl][Cu][Cl] [CuCl2]
- Relative activity (%) [1]: 50.3%
- Relative activity (%) [2]: 62.1%

SMILES: O=C(O)CN(CCN(CC(=O)O)CC(=O)O)CC(=O)O [EDTA]
- Effect of additive on enzyme activity (in words) [3]: lack of effect
- Relative activity (%) [3]: 93.8%
- Effect of additive on enzyme activity (in words) [4]: lack of effect
- Relative activity (%) [4]: 100.7%

SMILES: [Cl][Fe]([Cl])[Cl] [FeCl3]
- Relative activity (%) [1]: 109.2%
- Relative activity (%) [2]: 103.0%

SMILES: N=C(N)NCCC[C@H](N)C(=O)O [L-arginine]
- Relative activity (%) on substrate as compared with L-glutamic acid [5]: 0%
- Relative activity (%) on substrate as compared with L-glutamic acid [6]: 0%

SMILES: NCCCC[C@H](N)C(=O)O [L-lysine]
- Relative activity (%) on substrate as compared with L-glutamic acid [5]: 0%
- Relative activity (%) on substrate as compared with L-glutamic acid [6]: 0%
